Columns and labels:
[1] = human gut metagenome, 24 h, 2 µM
[2] = The drug is tested on Z-025 corresponding to rabbit gut metagenome with ENA study accession number: PRJEB37062 and ENA sample accession number: ERS12561824 for biotransformation under anaerobic condition. The drug concentrations were measured over 9 timepoints collected between 0 and 24 hours of incubation by liquid-chromatography-coupled mass spectrometry (LC–MS); details: 2 µM
[3] = The drug is tested on Z-028 corresponding to mouse gut metagenome with ENA study accession number: PRJEB37062 and ENA sample accession number: ERS12561827 for biotransformation under anaerobic condition. The drug concentrations were measured over 9 timepoints collected between 0 and 24 hours of incubation by liquid-chromatography-coupled mass spectrometry (LC–MS); details: 2 µM
[4] = human gut metagenome, 24 h, 2 µM; remark: listed apart in the source
[5] = human gut metagenome, 24 h, 2 µM; remark: listed apart in the source
[6] = human gut metagenome, 24 h, 2 µM; remark: listed apart in the source
[7] = The drug is tested on Z-005 corresponding to metagenome with ENA study accession number: PRJEB37062 and ENA sample accession number: ERS12561805 for biotransformation under anaerobic condition. The drug concentrations were measured over 9 timepoints collected between 0 and 24 hours of incubation by liquid-chromatography-coupled mass spectrometry (LC–MS); details: 2 µM
[8] = The drug is tested on Z-024 corresponding to pig gut metagenome with ENA study accession number: PRJEB37062 and ENA sample accession number: ERS12561823 for biotransformation under anaerobic condition. The drug concentrations were measured over 9 timepoints collected between 0 and 24 hours of incubation by liquid-chromatography-coupled mass spectrometry (LC–MS); details: 2 µM
[9] = The drug is tested on WLS-007 corresponding to human gut metagenome with ENA study accession number: PRJEB37062 and ENA sample accession number: ERS12561742 for biotransformation under anaerobic condition. The drug concentrations were measured over 9 timepoints collected between 0 and 24 hours of incubation by liquid-chromatography-coupled mass spectrometry (LC–MS); details: 2 µM
[10] = The drug is tested on Z-007 corresponding to rat gut metagenome with ENA study accession number: PRJEB37062 and ENA sample accession number: ERS12561807 for biotransformation under anaerobic condition. The drug concentrations were measured over 9 timepoints collected between 0 and 24 hours of incubation by liquid-chromatography-coupled mass spectrometry (LC–MS); details: 2 µM
[11] = human gut metagenome, 24 h, 2 µM; remark: listed apart in the source
[12] = human gut metagenome, 24 h, 2 µM; remark: listed apart in the source
[13] = human gut metagenome, 24 h, 2 µM; remark: listed apart in the source
[14] = The drug is tested on Z-022 corresponding to mouse gut metagenome with ENA study accession number: PRJEB37062 and ENA sample accession number: ERS12561821 for biotransformation under anaerobic condition. The drug concentrations were measured over 9 timepoints collected between 0 and 24 hours of incubation by liquid-chromatography-coupled mass spectrometry (LC–MS); details: 2 µM
[15] = The drug is tested on Z-027 corresponding to metagenome with ENA study accession number: PRJEB37062 and ENA sample accession number: ERS12561826 for biotransformation under anaerobic condition. The drug concentrations were measured over 9 timepoints collected between 0 and 24 hours of incubation by liquid-chromatography-coupled mass spectrometry (LC–MS); details: 2 µM
[16] = The drug is tested on WLS-052 corresponding to human gut metagenome with ENA study accession number: PRJEB37062 and ENA sample accession number: ERS12561747 for biotransformation under anaerobic condition. The drug concentrations were measured over 9 timepoints collected between 0 and 24 hours of incubation by liquid-chromatography-coupled mass spectrometry (LC–MS); details: 2 µM
[17] = The drug is tested on WLS-038 corresponding to human gut metagenome with ENA study accession number: PRJEB37062 and ENA sample accession number: ERS12561745 for biotransformation under anaerobic condition. The drug concentrations were measured over 9 timepoints collected between 0 and 24 hours of incubation by liquid-chromatography-coupled mass spectrometry (LC–MS); details: 2 µM
[18] = The drug is tested on Z-013 corresponding to rabbit gut metagenome with ENA study accession number: PRJEB37062 and ENA sample accession number: ERS12561813 for biotransformation under anaerobic condition. The drug concentrations were measured over 9 timepoints collected between 0 and 24 hours of incubation by liquid-chromatography-coupled mass spectrometry (LC–MS); details: 2 µM
[19] = The drug is tested on WLS-027 corresponding to human gut metagenome with ENA study accession number: PRJEB37062 and ENA sample accession number: ERS12561744 for biotransformation under anaerobic condition. The drug concentrations were measured over 9 timepoints collected between 0 and 24 hours of incubation by liquid-chromatography-coupled mass spectrometry (LC–MS); details: 2 µM
[20] = The drug is tested on Z-002 corresponding to rabbit gut metagenome with ENA study accession number: PRJEB37062 and ENA sample accession number: ERS12561802 for biotransformation under anaerobic condition. The drug concentrations were measured over 9 timepoints collected between 0 and 24 hours of incubation by liquid-chromatography-coupled mass spectrometry (LC–MS); details: 2 µM

Measured: Bacterial Biotransformation
Further: call rule not given here.

CN1C(=O)CCS(=O)(=O)C1c1ccc(Cl)cc1 (stereo not given) [CHLORMEZANONE]
Compound NOT metabolized: [1] | [2] | [3] | [4] | [5] | [7] | [8] | [9] | [10] | [11] | [12] | [13] | [14] | [15] | [16] | [17] | [18] | [19] | [20]
Compound metabolized: [6]

Clc1ccc(Cn2c(CN3CCCC3)nc3ccccc32)cc1 [CLEMIZOLE]
Compound metabolized: [2] | [4] | [6] | [8] | [9] | [11] | [12] | [16] | [17] | [18] | [19] | [20]
Compound NOT metabolized: [1] | [3] | [5] | [7] | [10] | [13] | [14] | [15]

CN1CCN(C2=Nc3cc(Cl)ccc3Nc3ccccc32)CC1 [CLOZAPINE]
Compound metabolized: [1] | [4] | [6] | [11] | [12] | [13] | [19] | [20]
Compound NOT metabolized: [2] | [3] | [5] | [7] | [8] | [9] | [10] | [14] | [15] | [16] | [17] | [18]

COc1cc2c(c(OC)c1OC)-c1ccc(OC)c(=O)cc1[C@@H](NC(C)=O)CC2 [COLCHICINE]
Compound NOT metabolized: [2] | [3] | [5] | [6] | [8] | [10] | [11] | [12] | [15] | [16] | [17] | [18] | [19]
Compound metabolized: [1] | [4] | [7] | [9] | [13] | [14] | [20]

CC(=O)OCC(=O)[C@@]12N=C(C)O[C@@H]1C[C@H]1[C@@H]3CCC4=CC(=O)C=C[C@]4(C)[C@H]3[C@@H](O)C[C@@]12C [DEFLAZACORT]
Compound NOT metabolized: [5]
Compound metabolized: [1] | [2] | [3] | [4] | [6] | [7] | [8] | [9] | [10] | [11] | [12] | [13] | [14] | [15] | [16] | [17] | [18] | [19] | [20]
